Experimental data from US9447078B2, “Substituted heterocyclic compounds for disease treatment” (Acucela Inc., priority 2012, dated 2016).

Target: T1, isomerase (Mus musculus, UniProt Q91ZQ5)
T1 construct: from tissue; host or cells: eyes of living CD-1 (and Balb/c) mice, endogenous protein
T1 sequence (Q91ZQ5 1-533): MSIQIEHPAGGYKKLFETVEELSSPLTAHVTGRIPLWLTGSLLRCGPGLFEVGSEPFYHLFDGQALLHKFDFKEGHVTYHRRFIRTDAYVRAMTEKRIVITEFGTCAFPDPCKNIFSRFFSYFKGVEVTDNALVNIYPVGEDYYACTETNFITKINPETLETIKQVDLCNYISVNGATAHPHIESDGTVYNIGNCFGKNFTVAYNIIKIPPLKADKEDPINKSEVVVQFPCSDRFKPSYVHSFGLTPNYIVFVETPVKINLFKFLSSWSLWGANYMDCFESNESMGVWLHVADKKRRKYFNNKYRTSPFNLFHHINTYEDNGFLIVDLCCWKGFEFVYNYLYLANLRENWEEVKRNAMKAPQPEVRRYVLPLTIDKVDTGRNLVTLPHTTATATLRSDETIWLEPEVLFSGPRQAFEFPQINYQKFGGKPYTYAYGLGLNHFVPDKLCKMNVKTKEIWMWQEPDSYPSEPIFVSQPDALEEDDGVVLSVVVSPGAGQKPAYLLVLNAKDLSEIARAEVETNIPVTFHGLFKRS
Test: In vivo murine isomerase assay (recovery of 11-cis-retinal after photobleaching)
Conditions: po, mice, oral gavage
Experimental: The capability of compounds described herein to inhibit isomerase was determined by an in vivo murine isomerase assay. Brief exposure of the eye to intense light (“photobleaching” of the visual pigment or simply “bleaching”) is known to photo-isomerize almost all 11-cis-retinal in the retina. The recovery of 11-cis-retinal after bleaching was used to estimate the activity of isomerase in vivo. Delayed recovery, as represented by lower 11-cis-retinal oxime levels, indicates inhibition of isomerization reaction. Procedures were performed essentially as described by Golczak et al., Proc. Natl. Acad. Sci. USA 102:8162-67 (2005). See also Deigner et al., Science, 244: 968-71 (1989); Gollapalli et al., Biochim Biophys Acta. 1651: 93-101 (2003); Parish, et al., Proc. Natl. Acad. Sci. USA, 14609-13 (1998); Radu, et al., Proc Natl Acad Sci USA 101: 5928-33 (2004).
Six-week old dark-adapted CD-1 (albino) male mice were orally gavaged with compound (0.03-3 mg/kg) dissolved in 100 μl corn oil containing 10% ethanol (five animals per group). After 2-24 hours in the dark, the mice were exposed to photobleaching of 5,000 lux of white light for 10 minutes. The mice were allowed to recover 2 hours in the dark. The animals were then sacrificed by carbon dioxide inhalation. Retinoids were extracted from the eye and the regeneration of 11-cis-retinal was assessed at various time intervals.
All steps were performed in darkness with minimal redlight illumination (low light darkroom lights and red-filtered flashlights for spot illumination as needed) (see, e.g., Maeda et al., J. Neurochem 85:944-956, 2003; Van Hooser et al., J Biol Chem 277:19173-82, 2002). After the mice were sacrificed, the eyes were immediately removed and placed in liquid nitrogen for storage.
The eyes were placed in 500 μL of bis-tris propane buffer (10 mM, pH ˜7.3) and 20 μL of 0.8M hydroxile amine (pH˜7.3). The eyes were cut up into small pieces with small iris scissors and then thoroughly homogenized at 30000 rpm with a mechanical homogenizer (Polytron PT 1300 D) in the tube until no visible tissue remained. 500 μL of methanol and 500 μL of heptane were added to each tube. The tubes were attached to a vortexer so that the contents were mixed thoroughly for 15 minutes in room temperature. The organic phase was separated from the aqueous phase by centrifugation for 10 min at 13K rpm, 4° C. 240 μL of the solution from the top layer (organic phase) was removed and transferred to clean 300 μl glass inserts in HPLC vials using glass pipette and the vials were crimped shut tightly.
The samples were analyzed on an Agilent 1100 HPLC system with normal phase column: SILICA (Beckman Coutlier, dp 5 μm, […]). […] Loading volume for each sample was 100 μl; detection wavelength is 360 nm. The area under the curve for 11-cis retinal oxime was calculated by Agilent Chemstation software and was recorded manually. Data processing was performed using Prizm software.
Positive control mice (no compound administered) were sacrificed fully dark-adapted and the eye retinoids analyzed. Light (bleached) control mice (no compound administered) were sacrificed and retinoids isolated and analyzed immediately after light treatment.
A time course study was performed to determine the isomerase inhibitory activity of the test compound. Male Balb/c mice (4/group) receive test compound orally by gavage. The animals were then “photo-bleached” (5000 Lux white light for 10 minutes) at 2, 4, 8, 16 and 24 hours after dosing, and returned to darkness to allow recovery of the 11-cis-retinal content of the eyes. Mice were sacrificed 2 hours after bleaching, eyes were enucleated, and retinoid content was analyzed by HPLC.
Recovery control mice (vehicle-only treated) were light-treated and left to recover for 2 hours in the dark before sacrifice and analysis. Light control mice (vehicle only treated) were sacrificed for analysis immediately after photo-bleaching.

NCCC(O)c1cccc(/C=C/C2CCCCC2)n1 (centres unmarked) [Example 3, (E)-3-Amino-1-(6-(2-cyclohexylvinyl)pyridin-2-yl)propan-1-ol]
inhibition at 1 mg/kg (Time 2 hour): 0%

NCC[C@@H](O)c1cccc(OCC2CCCCC2)n1 [Example 6, (R)-3-Amino-1-(6-(cyclohexylmethoxy)pyridin-2-yl)propan-1-ol]
inhibition at 1 mg/kg (Time 2 hour): 68.9 ± 6.5% | inhibition at 1 mg/kg (Time 4 hour): 37.7 ± 14.9% | inhibition at 3 mg/kg (Time 2 hour): 93.2 ± 0.9% | inhibition at 3 mg/kg (Time 4 hour): 85.5 ± 2.9% | inhibition at 3 mg/kg (Time 6 hour): 62.3 ± 3.8% | inhibition at 3 mg/kg (Time 8 hour): 30.8 ± 9.9% | inhibition at 3 mg/kg (Time 16 hour): 0% | inhibition at 3 mg/kg (Time 24 hour): 0%

CCCC(CCC)COc1cccc([C@H](O)CCN)n1 [Example 19, (R)-3-Amino-1-(6-((2-propylpentyl)oxy)pyridin-2-yl)propan-1-ol]
inhibition at 1 mg/kg (Time 4 hour): 98.2 ± 2.3% | inhibition at 1 mg/kg (Time 8 hour): 90.7 ± 3.3%

NCC[C@@H](O)c1ccc(OCC2CCCCC2)s1 [Example 5, (R)-3-Amino-1-(5-(cyclohexylmethoxy)thiophen-2-yl)propan-1-ol]
inhibition at 1 mg/kg (Time 2 hour): 0%

NCCC(O)c1ccc(OCC2CCCCC2)s1 (centres unmarked) [Example 1, 3-Amino-1-(5-(cyclohexylmethoxy)thiophen-2-yl)propan-1-ol]
inhibition at 1 mg/kg (Time 2 hour): 0% | inhibition at 1 mg/kg (Time 4 hour): 0%

NCCC(O)c1cc(C#CC2(O)CCCCC2)cs1 (centres unmarked) [Example 9, 1-((5-(3-Amino-1-hydroxypropyl)thiophen-3-yl)ethynyl)cyclohexanol]
inhibition at 1 mg/kg (Time 2 hour): 8.6 ± 4.2%

NCCC(O)c1cccc(CCC2CCCCC2)n1 (centres unmarked) [Example 4, 3-Amino-1-(6-(2-cyclohexylethyl)pyridin-2-yl)propan-1-ol]
inhibition at 1 mg/kg (Time 2 hour): 29.3 ± 4.3%

NCCC(O)c1cc(OCC2CCCCC2)ccn1 (centres unmarked) [Example 12, 3-Amino-1-(4-(cyclohexylmethoxy)pyridin-2-yl)propan-1-ol]
inhibition at 1 mg/kg (Time 2 hour): 0%
